# Measured values reported in PubChem BioAssay (NCI).
# Values joined by “and” are separate entries in the source; they are usually repeats but may differ in a detail not shown here. Identical values can stand only once.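 Assay format: 96-well plates, 48-hour exposure. GI50: concentration for 50% inhibition of growth. TGI is the concentration that stops growth completely.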
# Key:
# Experiment in all cases: NCI anticancer screen, dose series, 48 h
# HOP-62 NSCLC = system: HOP-62 NSCLC
# HOP-92 NSCLC = system: HOP-92 NSCLC
# KM12 colon = system: KM12 colon
# OVCAR-4 ovarian = system: OVCAR-4 ovarian
# SF-295 CNS = system: SF-295 CNS
# SK-MEL-2 melanoma = system: SK-MEL-2 melanoma
# U251 CNS = system: U251 CNS
# UACC-257 melanoma = system: UACC-257 melanoma
Compound,GI50 (HOP-62 NSCLC),TGI (HOP-62 NSCLC) [µM],GI50 (HOP-92 NSCLC),GI50 (KM12 colon),TGI (KM12 colon) [µM],GI50 (OVCAR-4 ovarian),TGI (OVCAR-4 ovarian) [µM],GI50 (SF-295 CNS),TGI (SF-295 CNS) [µM],GI50 (SK-MEL-2 melanoma) [µM],TGI (SK-MEL-2 melanoma) [µM],GI50 (U251 CNS),TGI (U251 CNS) [µM],TGI (HOP-92 NSCLC) [µM],GI50 (UACC-257 melanoma) [µM],TGI (UACC-257 melanoma) [µM]
CC[C@H](C)[C@H](NC(=O)[C@H]1CCCCN1C)C(=O)N(C)[C@H](C[C@@H](OC(C)=O)c1cccc(C(=O)N[C@@H](Cc2ccccc2)C[C@H](C)C(=O)OC)n1)C(C)C,0.0065 µM and 0.00427 µM,> 25,0.000632 µM and 0.0025 µM,0.00188 µM and 0.0025 µM,> 25,0.0277 µM and 0.0138 µM,> 25,0.00433 µM and 0.0025 µM,0.00776,0.0025,10.3,0.00408 µM and 0.00381 µM,> 25,–,–,–
Fc1ccc(-c2c(-c3ccncc3)nc3n2CCS3)cc1,> 25 µM,> 25,> 16.9 µM,> 25 µM,> 25,> 25 µM,> 25,> 25 µM,> 25,> 25,> 25,> 25 µM,> 25,> 25,> 25,> 25
O=C(NCCCCN1CCOCC1)c1cc2ccccc2o1,> 100 µM,> 100,–,> 100 µM,> 100,> 100 µM,> 100,> 100 µM,> 100,> 100,> 100,> 100 µM,> 100,–,> 100,> 100
Cc1ccc(O)c(NC(=O)c2cccc(Nc3ccnc(C(F)(F)F)c3)c2)c1,11.6 µM,28.9,2.24 µM,11 µM,24.8,2.97 µM,31.2,6.73 µM,27.6,5.28,18.9,15.6 µM,37.6,21.1,–,–
Cc1onc(-c2ccccc2)c1C(=O)N/N=C/c1cc(Cl)cc(Cl)c1O,6.04 µM,55.7,–,5.54 µM,> 100,2.07 µM,> 100,2.05 µM,11.3,11.5,56,3.19 µM,57.6,–,3.47,27.3
CC(=O)O[C@@H]1C2CCC3C(CC[C@@]4(C)C3CC[C@@H]4C(C)N(C)C)[C@@]2(C)CC[C@@H]1NC(=O)C=C(C)C (stereo partly specified),2.25 µM,5.62,1.66 µM,2.66 µM,9.5,3.51 µM,17.2,1.85 µM,4.42,2.89,6.85,2.22 µM,8.61,10.7,2.33,4.98
COc1ccc(/C=C\c2cc(OC)c(OC)c(OC)c2)cc1OCC(=O)Nc1nc2ccc(F)cc2s1,5.7 µM,> 100,5.73 µM,4.78 µM,> 100,7.3 µM,> 100,4.29 µM,> 100,8.46,> 100,4.33 µM,> 100,> 100,8.69,> 100
Oc1c(Cl)cc(Cl)c(Cl)c1CNCCNCc1c(O)c(Cl)cc(Cl)c1Cl,0.894 µM,8.3,1.66 µM,0.963 µM,8,0.41 µM,7.87,1.26 µM,20.3,3.4,14.1,0.556 µM,6.61,10.3,1.76,9.88
CC(C)(C)C(=O)OCOP(=O)(NCc1ccccc1)C1CCCN(O)C1=O (stereo unspecified),2.55 µM,32.8,1.06 µM,1.13 µM,3.56,2.1 µM,71.9,3.23 µM,29.5,2.85,15.6,2.45 µM,> 100,7.72,5.11,55.4
CCOC(=O)c1cc(C(=O)c2ccc(OC)cc2)n2ccc(/C=C/c3cc[n+](CC(=O)c4ccc(OC)cc4)cc3)cc12,3.4 µM,36.8,1.23 µM,–,–,1.26 µM,2.94,> 100 µM,> 100,–,–,1.68 µM,4.57,3.15,–,–
Cc1nc([N+](=O)[O-])cn1-c1nc2ccccn2c1[N+](=O)[O-],–,> 100,–,–,> 100,–,> 100,–,> 100,–,> 100,–,> 100,> 100,–,> 100
Nc1nc(/C=C\c2ccc([N+](=O)[O-])s2)nc(N2CCN(c3ccccc3)CC2)n1,29 µM,64.3,22.8 µM,16.6 µM,38.7,40.6 µM,> 100,20 µM,58.3,21.2,48.5,21.6 µM,56,57.1,20.8,44.2
Cc1c(C)n(CCCN2CCN(C)CC2)c2ccc(Oc3cccc(C(=O)N4CCN(CCc5ccc(F)cc5)CC4)c3)cc12,1.63 µM,3.34,–,1.93 µM,3.64,1.84 µM,3.92,1.85 µM,3.33,–,–,1.66 µM,3.28,–,1.88,3.72
CN(Cc1ccccc1)Cn1ccnc1,–,> 100,–,–,> 100,–,> 100,–,> 100,–,> 100,–,> 100,> 100,–,47.4
Cc1cnc2n1S(=O)(=O)c1cc(C(=O)Nc3cccc4nsnc34)c(Cl)cc1S2,20.1 µM,35.8,18.3 µM,17.6 µM,33.4,27.8 µM,75.4,22.8 µM,49.3,44.2,> 100,31.6 µM,> 100,50.4,19.1,38.3
CC(C)C[C@H](NC(=O)CNC(=O)c1cc(Cl)ccc1Cl)B(O)O,0.0472 µM,0.429,0.0231 µM,0.0295 µM,0.101,0.061 µM,5.45,0.0252 µM,0.1,< 0.0145,0.0364,0.0504 µM,2.81,0.165,0.0153,0.0492
